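How tested: cells in 96-well plates exposed to compound for 48 hours at five concentrations. The concentration for 50% growth inhibition is given as GI50.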 Active and inactive are the calls of the source. No stated cut-off is given here; in the data, active = GI50 up to about 1.1 µM and inactive = higher.
Columns and labels:
Assay in all cases: NCI tumour cell line growth inhibition, 48 h
HCT-116 = test system: HCT-116
Malme-3M = test system: Malme-3M
DU-145 = test system: DU-145
CCRF-CEM = test system: CCRF-CEM
OVCAR-8 = test system: OVCAR-8
M14 = test system: M14
HCC 2998 = test system: HCC 2998
PC-3 = test system: PC-3
HOP-62 = test system: HOP-62
Hs-578T = test system: Hs-578T
786-0 = test system: 786-0
A498 = test system: A498
MDA-N = test system: MDA-N
MDA-MB-231 = test system: MDA-MB-231
MDA-MB-435 = test system: MDA-MB-435
RPMI-8226 = test system: RPMI-8226
T47D = test system: T47D
OVCAR-4 = test system: OVCAR-4

Measured: GI50

O=C1OCC=C1COC1OC(CO)C(O)C(O)C1O (stereo not given)
inactive: HCT-116 > 100 µM | Malme-3M > 100 µM | DU-145 > 100 µM | CCRF-CEM 30.5 µM | OVCAR-8 > 100 µM | M14 > 100 µM | HCC 2998 > 100 µM | PC-3 > 100 µM | HOP-62 > 100 µM | Hs-578T > 100 µM | 786-0 > 100 µM | A498 > 100 µM | MDA-N > 100 µM | MDA-MB-231 > 100 µM | MDA-MB-435 > 100 µM | RPMI-8226 > 100 µM | T47D > 100 µM | OVCAR-4 > 100 µM

CCOC(=O)c1csc(NC(=O)CN2CCCC2)n1
inactive: DU-145 > 100 µM | CCRF-CEM > 100 µM | OVCAR-8 > 100 µM | M14 > 100 µM | HCC 2998 > 100 µM | PC-3 > 100 µM | HOP-62 > 100 µM | Hs-578T > 100 µM | A498 > 100 µM | MDA-N > 100 µM | MDA-MB-231 > 100 µM | MDA-MB-435 > 100 µM | RPMI-8226 > 100 µM | T47D > 100 µM | OVCAR-4 > 100 µM

Cc1nc(N(CCO)CCO)c2sc(=S)n(-c3ccccc3)c2n1
inactive: HCT-116 > 100 µM | Malme-3M > 100 µM | CCRF-CEM > 100 µM | OVCAR-8 > 100 µM | HCC 2998 > 100 µM | HOP-62 > 100 µM | A498 > 100 µM | RPMI-8226 > 100 µM

CCOC(=O)c1csc(NC(=O)CCN2CCN(C)CC2)n1
inactive: DU-145 > 100 µM | CCRF-CEM 54.8 µM | OVCAR-8 > 100 µM | M14 > 100 µM | HCC 2998 > 100 µM | PC-3 > 100 µM | HOP-62 > 100 µM | Hs-578T 64.6 µM | A498 > 100 µM | MDA-N > 100 µM | MDA-MB-231 > 100 µM | MDA-MB-435 > 100 µM | RPMI-8226 55.3 µM | T47D > 100 µM | OVCAR-4 > 100 µM

Cc1ccc(S(=O)(=O)NCCCSCCN)cc1
inactive: HCT-116 > 100 µM | DU-145 > 100 µM | CCRF-CEM > 100 µM | OVCAR-8 > 100 µM | M14 > 100 µM | HCC 2998 > 100 µM | PC-3 > 100 µM | Hs-578T > 100 µM | A498 4.99 µM | MDA-N > 100 µM | MDA-MB-231 > 100 µM | MDA-MB-435 > 100 µM | T47D > 100 µM | OVCAR-4 > 100 µM

O=C1C2c3[nH]c4ccccc4c3C3CCSCC3C2C(=O)N1c1ccccc1 (stereo not given)
inactive: HCT-116 > 100 µM | Malme-3M > 100 µM | CCRF-CEM > 100 µM | OVCAR-8 > 100 µM | M14 > 100 µM | HOP-62 > 100 µM | 786-0 > 100 µM | A498 > 100 µM | RPMI-8226 > 100 µM | OVCAR-4 > 100 µM

CN(C)c1cccc2c1C(=O)C=CC21CCc2ccc(N(C)C)c3c(N(C)C)ccc1c23 (stereo not given)
inactive: HCT-116 10.9 µM | Malme-3M 11.5 µM | DU-145 5.26 µM | CCRF-CEM 6.41 µM | OVCAR-8 13.7 µM | M14 14.2 µM | PC-3 11.6 µM | HOP-62 14.5 µM | Hs-578T 17.4 µM | 786-0 12.7 µM | A498 4.47 µM | MDA-N 11.2 µM | MDA-MB-231 13.6 µM | MDA-MB-435 10.3 µM | RPMI-8226 16.9 µM | T47D 66.4 µM | OVCAR-4 14.8 µM

CC(C)NC(=O)OCc1nnn2c1CCC2
inactive: HCT-116 > 100 µM | Malme-3M > 100 µM | CCRF-CEM > 100 µM | OVCAR-8 > 100 µM | M14 > 100 µM | HCC 2998 > 100 µM | HOP-62 > 100 µM | OVCAR-4 > 100 µM

From ChEMBL document CHEMBL1201862, “PubChem BioAssay data set” (2004)
